“Also recorded” adds a separate entry of the source.
System: gelatin
Assay: Collagenase cleavage of patterned gelatin on biosensor, BIND imaging
Type: biochemical
Conditions: 1.5 mg/ml collagenase; gelatin versus regions without gelatin (rabbit IgG)
Method: A pattern of gelatin (1 mg/ml, Sigma) was applied to a biosensor with a micropipette tip in the shape of the letters “SRU.” The gelatin was allowed to incubate on the biosensor surface for about 60 minutes before a thorough rinse with water. Next, the entire biosensor surface was exposed to a 1 mg/ml solution of rabbit IgG (Sigma) that attached a uniform thin layer of protein across the biosensor so that the peak wavelength value of the biosensor would be roughly equivalent in all locations. After a second rinse in water, the entire biosensor was exposed to a 1.5 mg/ml solution of collagenase, a specific binding partner, for about 80 minutes. The collagenase is an enzyme that selectively cleaves gelatin, thus selectively removing protein from the surface only in regions where the gelatin was applied. […] As a consequence of this selective interaction, an image is measured where the word “SRU” appears as a region with lower peak wavelength value compared to surrounding regions, as shown in FIG. 10.

## collagenase
  peak wavelength value change in gelatin regions after collagenase: peak wavelength value in the gelatin regions is reduced relative to the regions without gelatin; also recorded: peak wavelength value in the gelatin reaction surfaces is reduced relative to the reference surfaces without gelatin

From patent US7927789B1, “Self-referencing biodetection method and patterned bioassays” (SRU Biosystems, Inc., priority 2002, dated 2011)
